Laboratory results: ChEMBL document CHEMBL1132595, “Acquisition of high-affinity, SH2-targeted ligands via a spatially focused library” (J Med Chem, 1999)

Legend:
[1] = biological target: Tyrosine-protein kinase Lck (Homo sapiens, UniProt P06239); test: Dissociation constant for binding to SH2 domain of p56 lck tyrosine kinase
[2] = biological target: Tyrosine-protein kinase Fyn (Homo sapiens, UniProt P06241); test: Dissociation constant for binding to SH2 domain of Fyn protein kinase
[3] = Dissociation constant for binding to SH2 domain of Phosphatidylinositol 3-kinase p85 subunit
[4] = Dissociation constant for binding to SH2 domain of Phospholipase C gamma
[5] = biological target: Growth factor receptor-bound protein 2 (Homo sapiens, UniProt P62993); test: Dissociation constant for binding to SH2 domain of Growth factor receptor bound protein 2, Grb2
Growth factor receptor-bound protein 2, sequence (P62993 whole entry, the tested form may be a part): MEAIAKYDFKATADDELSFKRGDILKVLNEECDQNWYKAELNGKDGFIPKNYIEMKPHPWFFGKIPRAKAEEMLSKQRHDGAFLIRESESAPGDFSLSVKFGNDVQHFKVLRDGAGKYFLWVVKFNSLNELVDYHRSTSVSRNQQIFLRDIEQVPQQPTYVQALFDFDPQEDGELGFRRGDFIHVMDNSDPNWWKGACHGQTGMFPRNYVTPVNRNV

Tyrosine-protein kinase Lck, sequence (P06239 whole entry, the tested form may be a part): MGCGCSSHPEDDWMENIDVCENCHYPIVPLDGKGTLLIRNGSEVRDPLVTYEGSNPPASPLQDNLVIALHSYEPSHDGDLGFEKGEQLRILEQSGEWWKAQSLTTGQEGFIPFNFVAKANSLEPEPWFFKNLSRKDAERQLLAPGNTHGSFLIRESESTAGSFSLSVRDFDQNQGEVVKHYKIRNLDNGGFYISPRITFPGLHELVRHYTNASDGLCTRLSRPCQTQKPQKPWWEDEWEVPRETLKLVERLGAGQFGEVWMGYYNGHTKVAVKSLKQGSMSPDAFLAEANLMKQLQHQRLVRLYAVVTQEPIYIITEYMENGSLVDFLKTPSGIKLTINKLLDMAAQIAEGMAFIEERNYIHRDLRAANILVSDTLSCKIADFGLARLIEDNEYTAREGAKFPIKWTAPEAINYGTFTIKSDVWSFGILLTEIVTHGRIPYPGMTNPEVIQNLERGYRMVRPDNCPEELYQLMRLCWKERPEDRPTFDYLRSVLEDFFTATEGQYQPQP
Tyrosine-protein kinase Fyn, sequence (P06241 whole entry, the tested form may be a part): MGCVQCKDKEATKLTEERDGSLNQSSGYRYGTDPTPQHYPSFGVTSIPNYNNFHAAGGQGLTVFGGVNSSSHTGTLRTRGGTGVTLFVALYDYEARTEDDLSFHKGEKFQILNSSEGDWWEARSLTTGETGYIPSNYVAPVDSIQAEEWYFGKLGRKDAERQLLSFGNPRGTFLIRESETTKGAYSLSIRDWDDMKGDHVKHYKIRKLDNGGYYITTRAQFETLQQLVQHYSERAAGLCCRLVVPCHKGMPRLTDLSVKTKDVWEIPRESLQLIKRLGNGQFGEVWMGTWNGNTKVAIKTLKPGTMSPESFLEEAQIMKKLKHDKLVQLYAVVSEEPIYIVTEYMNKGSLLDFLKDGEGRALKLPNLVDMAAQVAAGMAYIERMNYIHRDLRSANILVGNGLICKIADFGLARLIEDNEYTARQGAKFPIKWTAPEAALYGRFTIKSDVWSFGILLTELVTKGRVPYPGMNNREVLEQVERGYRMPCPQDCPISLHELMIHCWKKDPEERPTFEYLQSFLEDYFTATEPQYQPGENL

| Structure (SMILES) | Kd [1] [µM] | Kd [2] [µM] | Kd [3] [µM] | Kd [4] [µM] | Kd [5] [µM] |
| --- | --- | --- | --- | --- | --- |
| O=C(O)CNC(=O)c1ccc([N+](=O)[O-])cc1 | 0.29 | 0.24 | – | – | – |
| O=C(O)Cc1cc(=O)oc2cc(O)ccc12 | 0.035 | 0.15 | 9.3 | 4.9 | 11.3 |
| O=C(O)c1ccsc1 | 0.26 | 0.7 | – | – | – |
| COc1cc(Br)c(C(=O)O)cc1OC | 0.24 | 0.5 | – | – | – |
| COc1ccc2c(CC(=O)O)cc(=O)oc2c1 | 2.5 | – | – | – | – |
| O=C(O)c1cc(C(=O)O)cc(S(=O)(=O)O)c1 | 0.22 | 0.06 | – | – | – |
